Tests used:
[1] = biological target: T1, Acidic mammalian chitinase (Mus musculus, UniProt Q91XA9); test: Inhibition of mouse recombinant full length C-terminal His-tagged acidic mammalian chitinase expressed in CHO-K1 cells using 4-methylumbelliferyl-beta-D-N,N'-diacetylchitobioside hydrate as substrate after 60 mins by fluorescence assay
Chitotriosidase-1 [2] = biological target: T2, Chitotriosidase-1 (Homo sapiens, UniProt Q13231); test: Inhibition of human recombinant full length C-terminal His-tagged chitotriosidase expressed in CHO-K1 cells using 4-methylumbelliferyl-beta-D-N,N',N\"\"-triacetylchitotrioside as substrate after 60 mins by fluorescence assay; assay type: cell-based
T2 sequence (Q13231 whole entry): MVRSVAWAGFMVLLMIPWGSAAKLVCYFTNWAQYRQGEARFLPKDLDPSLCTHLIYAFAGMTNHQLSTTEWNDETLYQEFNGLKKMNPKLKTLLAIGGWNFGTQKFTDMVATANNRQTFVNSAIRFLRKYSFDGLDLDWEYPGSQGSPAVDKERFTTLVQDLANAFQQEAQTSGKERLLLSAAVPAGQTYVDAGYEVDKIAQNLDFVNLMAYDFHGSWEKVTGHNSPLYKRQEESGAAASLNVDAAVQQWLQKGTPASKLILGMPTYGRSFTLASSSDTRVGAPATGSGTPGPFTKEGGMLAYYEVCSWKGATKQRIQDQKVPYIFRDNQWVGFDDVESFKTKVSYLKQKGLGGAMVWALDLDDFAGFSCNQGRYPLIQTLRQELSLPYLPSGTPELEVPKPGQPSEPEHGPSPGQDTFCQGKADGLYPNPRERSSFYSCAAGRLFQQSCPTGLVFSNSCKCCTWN

Chitotriosidase-1 [3] = biological target: T3, Chitotriosidase-1 (Mus musculus, UniProt Q9D7Q1); test: Inhibition of mouse recombinant full length C-terminal His-tagged chitotriosidase expressed in CHO-K1 cells using 4-methylumbelliferyl-beta-D-N,N',N\"\"-triacetylchitotrioside as substrate after 60 mins by fluorescence assay; assay type: cell-based
T3 sequence (Q9D7Q1 whole entry): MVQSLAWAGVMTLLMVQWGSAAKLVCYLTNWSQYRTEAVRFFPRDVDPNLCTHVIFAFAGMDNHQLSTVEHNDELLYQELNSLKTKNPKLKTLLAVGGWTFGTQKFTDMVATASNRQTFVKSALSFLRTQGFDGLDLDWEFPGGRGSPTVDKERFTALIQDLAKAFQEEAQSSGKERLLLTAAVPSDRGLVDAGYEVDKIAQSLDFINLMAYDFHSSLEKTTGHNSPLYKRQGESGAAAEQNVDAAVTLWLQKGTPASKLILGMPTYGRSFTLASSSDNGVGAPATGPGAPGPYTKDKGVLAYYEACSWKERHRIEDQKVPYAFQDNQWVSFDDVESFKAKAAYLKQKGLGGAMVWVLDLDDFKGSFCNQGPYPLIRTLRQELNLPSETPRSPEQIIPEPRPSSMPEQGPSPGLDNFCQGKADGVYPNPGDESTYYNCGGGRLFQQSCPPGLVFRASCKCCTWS

[4] = Clearance in BALB/c mouse at 3 mg/kg, iv by LC-MS/MS analysis; assay type: ADME, organism-based; conditions: in vivo
[5] = AUC (0 to infinity) in BALB/c mouse at 10 mg/kg, po by LC-MS/MS analysis; assay type: ADME, organism-based; design: dose 10 mg/kg, route oral, time infinity; conditions: in vivo
[6] = Stability in liver microsomes (unknown origin) assessed as compound remaining after 20 mins; assay type: ADME, microsome; conditions: read-out: Stability
[7] = Half life in BALB/c mouse at 3 mg/kg, iv by LC-MS/MS analysis; assay type: ADME, organism-based; conditions: in vivo
[8] = Tmax in BALB/c mouse at 10 mg/kg, po by LC-MS/MS analysis; assay type: ADME, organism-based; conditions: in vivo
[9] = AUC (0 to infinity) in BALB/c mouse at 3 mg/kg, iv by LC-MS/MS analysis; assay type: ADME, organism-based; design: dose 3 mg/kg, route intravenous, time infinity; conditions: in vivo
[10] = Cmax in BALB/c mouse at 10 mg/kg, po by LC-MS/MS analysis; assay type: ADME, organism-based; design: dose 10 mg/kg, route oral; conditions: in vivo
[11] = Volume of distribution at steady state in BALB/c mouse at 3 mg/kg, iv by LC-MS/MS analysis; assay type: ADME, organism-based; conditions: in vivo, read-out: Vdss
[12] = Oral bioavailability in BALB/c mouse at 10 mg/kg by LC-MS/MS analysis; assay type: ADME, organism-based; conditions: in vivo
[13] = biological target: T1, Acidic mammalian chitinase; test: Inhibition of mouse recombinant full length C-terminal His-tagged acidic mammalian chitinase expressed in CHO-K1 cells using 4-methylumbelliferyl-beta-D-N,N'-diacetylchitobioside hydrate as substrate after 60 mins by Lineweaver-Burk plot analysis
Chitotriosidase-1 [14] = biological target: T3, Chitotriosidase-1; test: Inhibition of mouse recombinant full length C-terminal His-tagged chitotriosidase expressed in CHO-K1 cells using 4-methylumbelliferyl-beta-D-N,N',N\"\"-triacetylchitotrioside as substrate after 60 mins by Lineweaver-Burk plot analysis; assay type: cell-based
Chitotriosidase-1 [15] = biological target: T2, Chitotriosidase-1; test: Inhibition of human recombinant full length C-terminal His-tagged chitotriosidase expressed in CHO-K1 cells using 4-methylumbelliferyl-beta-D-N,N',N\"\"-triacetylchitotrioside as substrate after 60 mins by Lineweaver-Burk plot analysis; assay type: cell-based
Salmonella typhimurium = test: Genotoxicity in Salmonella typhimurium by Ames test; assay type: toxicity; conditions: salmonella enterica subsp. enterica serovar typhimurium

T1 sequence (Q91XA9 whole entry): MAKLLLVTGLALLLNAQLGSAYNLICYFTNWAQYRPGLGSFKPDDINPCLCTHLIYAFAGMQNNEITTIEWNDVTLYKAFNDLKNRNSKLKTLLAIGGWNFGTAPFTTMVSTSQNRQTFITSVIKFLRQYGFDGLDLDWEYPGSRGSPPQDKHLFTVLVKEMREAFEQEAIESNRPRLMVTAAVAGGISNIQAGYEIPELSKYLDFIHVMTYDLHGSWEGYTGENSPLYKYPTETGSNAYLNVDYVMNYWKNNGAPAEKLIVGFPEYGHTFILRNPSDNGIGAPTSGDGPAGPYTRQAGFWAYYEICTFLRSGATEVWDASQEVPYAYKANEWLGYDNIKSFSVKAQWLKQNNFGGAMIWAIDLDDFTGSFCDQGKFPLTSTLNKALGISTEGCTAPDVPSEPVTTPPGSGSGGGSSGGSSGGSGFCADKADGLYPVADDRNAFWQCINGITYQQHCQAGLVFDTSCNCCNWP

| Compound | IC50 (Chitotriosidase-1 [2]) | IC50 (Chitotriosidase-1 [3]) | also measured |
| --- | --- | --- | --- |
| Nc1n[nH]c(N2CCN(CCOc3ccc(Br)cc3)CC2)n1 | 6760 nM | 19.8 µM | IC50 [1]: 2100 nM |
| Nc1n[nH]c(N2CCC(NC(=O)Nc3ccc(Br)cc3)CC2)n1 | > 100000 nM | > 100 µM | – |
| CN(CCc1ccccc1)C1CCN(c2nc(N)n[nH]2)CC1 | > 100000 nM | > 100 µM | – |
| CN(CCc1ccc(C(C)(C)C)cc1)C1CCN(c2nc(N)n[nH]2)CC1 | 4160 nM | > 100 µM | – |
| Nc1n[nH]c(N2CCC(NS(=O)(=O)Cc3ccc(Br)cc3)CC2)n1 | > 100000 nM | > 100 µM | clearance [4]: 11.5 mL/min/kg; AUC(0-inf) [5]: 8210 ng·h/mL; remaining at 20 min [6]: 100%; half-life [7]: 666 min; Tmax [8]: 1 h; AUC(0-inf) [9]: 4340 ng·h/mL; Cmax [10]: 3250 ng/mL; Vd [11]: 1.16 L/kg; bioavailability [12]: 57% |
| Nc1n[nH]c(N2CCC(C(=O)NCc3ccc(Br)cc3)CC2)n1 | > 100000 nM | > 100 µM | – |
| CN(Cc1ccc(Br)cc1)CC1CCN(c2nc(N)n[nH]2)CC1 | > 100000 nM | > 100 µM | – |
| CN(CCc1ccc(Cl)cc1Cl)C1CCN(c2nc(N)n[nH]2)CC1 | 2260 nM | 47.6 µM | – |
| Nc1n[nH]c(N2CCC(NC(=O)Cc3ccc(Br)cc3)CC2)n1 | > 100000 nM | > 100 µM | – |
| CN(C1CCN(c2nc(N)n[nH]2)CC1)S(=O)(=O)Cc1ccc(Br)cc1 | > 100000 nM | > 100 µM | – |
| Nc1n[nH]c(N2CCN(C(=O)COc3ccc(Br)cc3)CC2)n1 | > 100000 nM | > 100 µM | – |
| Nc1n[nH]c(N2CCC(CNC(=O)c3ccc(Br)cc3)CC2)n1 | 23100 nM | > 100 µM | – |

The next compounds have a lower IC50 (Chitotriosidase-1 [3]) than those just listed; values first:

| IC50 (Chitotriosidase-1 [2]) | IC50 (Chitotriosidase-1 [3]) | Compound | also measured |
| --- | --- | --- | --- |
| 389 nM | 7.47 µM | CN(CCc1ccc(Cl)cc1)C1CCN(c2nc(N)n[nH]2)CC1 | – |
| 123 nM | 1.27 µM | CC(C)CN(CCc1ccc(Br)cc1)C1CCN(c2nc(N)n[nH]2)CC1 | clearance [4]: 8.53 mL/min/kg; AUC(0-inf) [5]: 27900 ng·h/mL; remaining at 20 min [6]: 78.3%; half-life [7]: 195 min; Tmax [8]: 0.5 h; AUC(0-inf) [9]: 5860 ng·h/mL; Cmax [10]: 6040 ng/mL; Vd [11]: 1.66 L/kg; bioavailability [12]: 100% |
| 1170 nM | 6.96 µM | CC(C)c1ccc(CCN(C)C2CCN(c3nc(N)n[nH]3)CC2)cc1 | – |
| 385 nM | 7.08 µM | CCN(CCc1ccc(Cl)cc1)C1CCN(c2nc(N)n[nH]2)CC1 | – |
| 945 nM | 15.6 µM | CC(C)N(CCc1ccc(Cl)cc1)C1CCN(c2nc(N)n[nH]2)CC1 | – |
| 232 nM | 2.96 µM | CC(C)CN(CCc1ccc(Cl)cc1)C1CCN(c2nc(N)n[nH]2)CC1 | IC50 [1]: 18.8 nM; clearance [4]: 9.06 mL/min/kg; AUC(0-inf) [5]: 9560 ng·h/mL; Ki [13]: 10.5 nM; remaining at 20 min [6]: 76.9%; half-life [7]: 178 min; Tmax [8]: 0.25 h; AUC(0-inf) [9]: 5520 ng·h/mL; Cmax [10]: 1860 ng/mL; Ki (Chitotriosidase-1 [14]): 3.4 µM; Ki (Chitotriosidase-1 [15]): 312 nM; Activity (Salmonella typhimurium): Non-Toxic; Vd [11]: 2.33 L/kg; bioavailability [12]: 52% |
| 163 nM | 1.51 µM | Nc1n[nH]c(N2CCC(N(CCc3ccc(Cl)cc3)Cc3ccccc3)CC2)n1 | IC50 [1]: 11.2 nM |
| 149 nM | 2.58 µM | Nc1n[nH]c(N2CCC(N(CCc3ccc(Cl)cc3)Cc3ccccc3Cl)CC2)n1 | IC50 [1]: 9.7 nM; clearance [4]: 45 mL/min/kg; AUC(0-inf) [5]: 1750 ng·h/mL; remaining at 20 min [6]: 21%; half-life [7]: 407 min; Tmax [8]: 1 h; AUC(0-inf) [9]: 1110 ng·h/mL; Cmax [10]: 618 ng/mL; Vd [11]: 3.03 L/kg; bioavailability [12]: 47% |
| 1520 nM | 12.6 µM | Cc1ccc(CCN(C)C2CCN(c3nc(N)n[nH]3)CC2)cc1 | – |
| 123 nM | 2.03 µM | Nc1n[nH]c(N2CCC(N(CCc3ccc(Cl)cc3)CC3CCCCC3)CC2)n1 | – |
| 36 nM | 0.573 µM | Nc1n[nH]c(N2CCC(N(CCc3ccc(Cl)cc3)Cc3cccc4ccccc34)CC2)n1 | – |
| 175 nM | 2.7 µM | CN(CCc1ccc(Br)cc1)C1CCN(c2nc(N)n[nH]2)CC1 | clearance [4]: 52.6 mL/min/kg; AUC(0-inf) [5]: 3340 ng·h/mL; remaining at 20 min [6]: 97.5%; half-life [7]: 264 min; Tmax [8]: 2 h; AUC(0-inf) [9]: 950 ng·h/mL; Cmax [10]: 672 ng/mL; Vd [11]: 12.8 L/kg; bioavailability [12]: 99% |
| 765 nM | 3.07 µM | CN(CCc1ccc(C2CC2)cc1)C1CCN(c2nc(N)n[nH]2)CC1 | – |
| 105 nM | 2.72 µM | CCN(CCc1ccc(Br)cc1)C1CCN(c2nc(N)n[nH]2)CC1 | – |
| – | 7.12 µM | CCc1ccc(CCN(C)C2CCN(c3nc(N)n[nH]3)CC2)cc1 | – |
